Test results: patent publication US20250318529A1, “METHOD FOR MOSQUITO CONTROL” (SYNGENTA CROP PROTECTION AG, priority 2022, published 2025)

What was measured:
Experiment in all cases: CDC bottle bioassay, adult female mosquitoes
An. gambiae Tiassale = assay type: in vivo, Anopheles gambiae; details: pyrethroid Resistant
Procedure: (§1) Examples B1-B3: Bottle Assay Based on the Guideline for Evaluating Insecticide Resistance in Vectors Using the CDC Bottle Bioassay
(§2) 1 ml of acetone containing a test compound at a defined concentration, and 1500 ppm Mero (Bayer Crop Science) was added to a 250 ml glass bottle, the bottle was placed on a rolling table to coat the inner surfaces as the solvent evaporated. Once dry, approximately twenty five non-blood fed adult female mosquitoes of the appropriate species and strains (each two or three days old) were aspirated from the stock culture and gently blown into the exposure bottle. The lid of the bottle was replaced, and the bottle placed upright out of direct sun light under standard culture conditions, nominally 28° C. and 60-80% relative humidity.
(§3) A stopwatch was started, and the assessment of the knock-down were made after 60 minutes. A mosquito was said to be knocked down if it was unable to stand, following the CDC definition.
(§4) After one hour the mosquitoes were carefully removed from the bottle with an aspirator and placed in a recovery cup. The mosquitoes were supplied with a 10% sucrose solution on a cotton wool bung, and stored under culture conditions. Assessments of the mortality were made after 24 and 48 hours.
(§5) Each treatment was replicated a minimum of three times, with the mean knockdown or mortality recorded. In each study, a set of bottles was infested with a known insecticide susceptible strain of mosquitoes from the same genera as the resistant strains.

An. gambiae KisKDR = assay type: in vivo, Anopheles gambiae; details: pyrethroid Resistant
Procedure: as §1, §2, §3, §4, §5

An. gambiae M'Bé = assay type: in vivo, Anopheles gambiae; details: pyrethroid Resistant
Procedure: as §1, §2, §3, §4, §5

Anopheles stephensi = assay type: in vivo; details: pyrethroid Susceptible
Procedure: as §1, §2, §3, §4, §5

An. gambiae Kisumu = assay type: in vivo, Anopheles gambiae; details: pyrethroid Susceptible
Procedure: as §1
[…] Once dry, approximately twenty five non-blood fed adult female mosquitoes of the appropriate species and strains (each two or three days old) were aspirated from the stock culture and gently blown into the exposure bottle. The lid of the bottle was replaced, and the bottle placed upright out of direct sun light under standard culture conditions, nominally 28° C. and 60-80% relative humidity.
as §3, §4, §5

[1] = Table B1, 25 μg/bottle + 1.5 mg Mero
[2] = Table B1, 50 μg/bottle + 1.5 mg Mero
[3] = Table B1, 250 μg/bottle + 1.5 mg Mero
[4] = Table B3, 25 μg/bottle + 1.5 mg Mero
[5] = Table B3, 50 μg/bottle + 1.5 mg Mero
[6] = Table B3, 250 μg/bottle + 1.5 mg Mero
[7] = Table B2, 50 μg/bottle + 1.5 mg Mero
[8] = Table B2, 250 μg/bottle + 1.5 mg Mero

## CCN1OCC(NC(=O)c2ccc(C3=NOC(c4cc(Cl)c(F)c(Cl)c4)(C(F)(F)F)C3)cc2C)C1=O (stereo not shown) [Isocycloseram]
An. gambiae Tiassale; [1]
  Mean % mortality 60 minutes: 38.4%
  Mean % mortality 24 hours: 89.6%
An. gambiae Tiassale; [2]
  Mean % mortality 60 minutes: 84%
  Mean % mortality 24 hours: 100%
An. gambiae Tiassale; [3]
  Mean % mortality 60 minutes: 98.4%
  Mean % mortality 24 hours: 100%
An. gambiae Tiassale; [4]
  Mean % mortality 60 minutes: 96.9%
  Mean % mortality 24 hours: 100%
An. gambiae Tiassale; [5]
  Mean % mortality 60 minutes: 99.2%
  Mean % mortality 24 hours: 100%
An. gambiae Tiassale; [6]
  Mean % mortality 60 minutes: 99.1%
  Mean % mortality 24 hours: 100%
An. gambiae KisKDR; [7]
  Mean % mortality 60 minutes: 86.7%
  Mean % mortality 24 hours: 100%
An. gambiae KisKDR; [8]
  Mean % mortality 60 minutes: 100%
  Mean % mortality 24 hours: 100%
An. gambiae M'Bé; [7]
  Mean % mortality 60 minutes: 37.8%
  Mean % mortality 24 hours: 70.3%
An. gambiae M'Bé; [8]
  Mean % mortality 60 minutes: 89.3%
  Mean % mortality 24 hours: 100%
Anopheles stephensi; [1]
  Mean % mortality 60 minutes: 12%
  Mean % mortality 24 hours: 70.4%
Anopheles stephensi; [2]
  Mean % mortality 60 minutes: 60.8%
  Mean % mortality 24 hours: 98.4%
Anopheles stephensi; [3]
  Mean % mortality 60 minutes: 79.2%
  Mean % mortality 24 hours: 100%
An. gambiae Kisumu; [1]
  Mean % mortality 60 minutes: 56.8%
  Mean % mortality 24 hours: 89.6%
An. gambiae Kisumu; [2]
  Mean % mortality 60 minutes: 88.8%
  Mean % mortality 24 hours: 100%
An. gambiae Kisumu; [3]
  Mean % mortality 60 minutes: 99.2%
  Mean % mortality 24 hours: 100%
An. gambiae Kisumu; [7]
  Mean % mortality 60 minutes: 80.77%
  Mean % mortality 24 hours: 100%
An. gambiae Kisumu; [8]
  Mean % mortality 60 minutes: 80.77%
  Mean % mortality 24 hours: 100%
An. gambiae Kisumu; [4]
  Mean % mortality 60 minutes: 98.8%
  Mean % mortality 24 hours: 100%
An. gambiae Kisumu; [5]
  Mean % mortality 60 minutes: 96.4%
  Mean % mortality 24 hours: 100%
An. gambiae Kisumu; [6]
  Mean % mortality 60 minutes: 99.2%
  Mean % mortality 24 hours: 100%

## CC1(C)C(C=C(Cl)Cl)C1C(=O)OCc1cccc(Oc2ccccc2)c1 (stereo not shown) [Permethrin, reference compound]
An. gambiae Tiassale; Table B1, 20 μg/bottle
  Mean % mortality 60 minutes: 45.6%
  Mean % mortality 24 hours: 80%
An. gambiae Tiassale; Table B3, 20 μg/bottle
  Mean % mortality 60 minutes: 99.1%
  Mean % mortality 24 hours: 91.7%
An. gambiae KisKDR; Table B2, 20 μg/bottle
  Mean % mortality 60 minutes: 100%
  Mean % mortality 24 hours: 82.1%
An. gambiae M'Bé; Table B2, 20 μg/bottle
  Mean % mortality 60 minutes: 12.5%
  Mean % mortality 24 hours: 13.9%
Anopheles stephensi; Table B1, 20 μg/bottle
  Mean % mortality 60 minutes: 100%
  Mean % mortality 24 hours: 100%
An. gambiae Kisumu; Table B1, 20 μg/bottle
  Mean % mortality 60 minutes: 100%
  Mean % mortality 24 hours: 100%
An. gambiae Kisumu; Table B2, 20 μg/bottle
  Mean % mortality 60 minutes: 100%
  Mean % mortality 24 hours: 100%
An. gambiae Kisumu; Table B3, 20 μg/bottle
  Mean % mortality 60 minutes: 100%
  Mean % mortality 24 hours: 100%
